Converted amounts (≈) assume the structure as drawn.
Tests used:
[1] = test system: Pseudomonas aeruginosa; assay: Antibacterial activity against Pseudomonas aeruginosa NCTC 13437 assessed as inhibition in bacterial growth incubated for 20 to 24 hrs by CLSI based broth microdilution method; assay type: functional; settings: Pseudomonas aeruginosa, NCTC 13437, time 20-24 hrs; read-out: MIC
[2] = Inhibition of Escherichia coli topoisomerase 4 incubated for 120 mins by Transcreener ADP2 FI assay
[3] = molecular target: T1, hERG (KCNH2) (Homo sapiens, UniProt Q12809); assay: Inhibition of hERG potassium channel expressed in CHO cells at 1 uM by electrophysiological patch clamp assay relative to control; assay type: toxicity, cell-based; settings: CHO cells expressing hERG
T1 sequence (Q12809 whole entry): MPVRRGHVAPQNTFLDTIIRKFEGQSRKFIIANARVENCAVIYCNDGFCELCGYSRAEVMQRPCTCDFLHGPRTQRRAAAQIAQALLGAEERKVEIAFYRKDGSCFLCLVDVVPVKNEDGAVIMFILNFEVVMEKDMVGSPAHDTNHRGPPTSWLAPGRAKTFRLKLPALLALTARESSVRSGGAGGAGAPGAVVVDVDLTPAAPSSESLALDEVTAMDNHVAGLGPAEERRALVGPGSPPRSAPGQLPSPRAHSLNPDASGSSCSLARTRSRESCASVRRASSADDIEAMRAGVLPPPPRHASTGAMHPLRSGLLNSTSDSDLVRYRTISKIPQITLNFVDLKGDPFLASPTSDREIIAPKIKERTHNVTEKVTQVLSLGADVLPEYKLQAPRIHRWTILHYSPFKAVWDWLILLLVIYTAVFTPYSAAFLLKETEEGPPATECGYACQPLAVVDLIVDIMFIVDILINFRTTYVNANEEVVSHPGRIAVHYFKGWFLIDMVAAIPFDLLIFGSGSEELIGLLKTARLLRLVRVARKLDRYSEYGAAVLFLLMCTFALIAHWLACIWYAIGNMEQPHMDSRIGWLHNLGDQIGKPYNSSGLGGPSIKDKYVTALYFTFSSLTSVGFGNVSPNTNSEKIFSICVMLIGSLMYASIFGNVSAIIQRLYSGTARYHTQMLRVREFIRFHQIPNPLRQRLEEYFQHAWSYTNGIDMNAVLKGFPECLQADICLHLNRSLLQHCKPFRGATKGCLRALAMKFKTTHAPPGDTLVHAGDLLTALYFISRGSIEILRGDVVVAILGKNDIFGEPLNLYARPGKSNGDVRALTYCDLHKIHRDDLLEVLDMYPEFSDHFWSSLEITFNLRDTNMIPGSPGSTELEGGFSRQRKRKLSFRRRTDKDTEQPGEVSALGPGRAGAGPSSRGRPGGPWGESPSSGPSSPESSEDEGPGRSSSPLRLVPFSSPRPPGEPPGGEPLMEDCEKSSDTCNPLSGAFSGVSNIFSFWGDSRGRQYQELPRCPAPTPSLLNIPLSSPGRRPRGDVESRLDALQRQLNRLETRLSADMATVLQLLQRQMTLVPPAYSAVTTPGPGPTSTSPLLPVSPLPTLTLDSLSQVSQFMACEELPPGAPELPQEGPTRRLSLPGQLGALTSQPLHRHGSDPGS

[4] = test system: Staphylococcus aureus; assay: Antibacterial activity against Staphylococcus aureus ATCC 29213 assessed as inhibition in bacterial growth incubated for 20 to 24 hrs by CLSI based broth microdilution method; assay type: functional; settings: Staphylococcus aureus, ATCC 29213; time 20-24 hrs; read-out: MIC
[5] = test system: Escherichia coli; assay: Antibacterial activity against Escherichia coli K-12 BW25113 deltaTolC assessed as inhibition in bacterial growth incubated for 20 to 24 hrs by CLSI based broth microdilution method; assay type: functional; settings: time 20-24 hrs
[6] = test system: Pseudomonas aeruginosa; assay: Antibacterial activity against Pseudomonas aeruginosa ATCC 27853 assessed as inhibition in bacterial growth incubated for 20 to 24 hrs by CLSI based broth microdilution method; assay type: functional; settings: time 20-24 hrs
[7] = molecular target: T1, hERG (KCNH2); assay: Inhibition of hERG potassium channel expressed in CHO cells at 10 uM by electrophysiological patch clamp assay relative to control; assay type: toxicity, cell-based; settings: CHO cells expressing hERG
[8] = test system: Klebsiella pneumoniae; assay: Antibacterial activity against Klebsiella pneumoniae ATCC 700603 assessed as inhibition in bacterial growth incubated for 20 to 24 hrs by CLSI based broth microdilution method; assay type: functional; settings: Klebsiella pneumoniae, ATCC 700603, time 20-24 hrs; read-out: MIC
[9] = molecular target: T1, hERG (KCNH2); assay: (§1) Inhibition of hERG potassium channel expressed in CHO cells by electrophysiological patch clamp assay; assay type: toxicity, cell-based; settings: human, CHO cells expressing hERG
[10] = molecular target: Voltage-gated inwardly rectifying potassium channel KCNH2 (Homo sapiens, UniProt Q12809); assay: as §1; assay type: toxicity, cell-based
Sequence of Voltage-gated inwardly rectifying potassium channel KCNH2 (Q12809 whole entry): as above

[11] = test system: Escherichia coli; assay: Antibacterial activity against Escherichia coli K-12 BW25113 assessed as inhibition in bacterial growth incubated for 20 to 24 hrs by CLSI based broth microdilution method; assay type: functional; settings: Escherichia coli, K-12 BW25113, time 20-24 hrs; read-out: MIC
[12] = test system: Pseudomonas aeruginosa; assay: Antibacterial activity against Pseudomonas aeruginosa NCTC 11451 assessed as inhibition in bacterial growth incubated for 20 to 24 hrs by CLSI based broth microdilution method; assay type: functional; settings: Pseudomonas aeruginosa, NCTC 11451, time 20-24 hrs; read-out: MIC
[13] = test system: Acinetobacter baumannii; assay: Antibacterial activity against Acinetobacter baumannii ATCC BAA-747 assessed as inhibition in bacterial growth incubated for 20 to 24 hrs by CLSI based broth microdilution method; assay type: functional; settings: Acinetobacter baumannii, ATCC BAA-747, time 20-24 hrs; read-out: MIC
[14] = test system: Escherichia coli; assay: Antibacterial activity against Escherichia coli ATCC BAA-2340 assessed as inhibition in bacterial growth incubated for 20 to 24 hrs by CLSI based broth microdilution method; assay type: functional; settings: Escherichia coli, ATCC BAA-2340, time 20-24 hrs; read-out: MIC
[15] = test system: Staphylococcus aureus; assay: Antibacterial activity against Staphylococcus aureus ATCC BAA-1556 assessed as inhibition in bacterial growth incubated for 20 to 24 hrs by CLSI based broth microdilution method; assay type: functional; settings: Staphylococcus aureus, ATCC BAA-1556, time 20-24 hrs; read-out: MIC
[16] = test system: Klebsiella pneumoniae; assay: Antibacterial activity against Klebsiella pneumoniae ATCC BAA-2146 assessed as inhibition in bacterial growth incubated for 20 to 24 hrs by CLSI based broth microdilution method; assay type: functional; settings: Klebsiella pneumoniae, ATCC BAA-2146, time 20-24 hrs; read-out: MIC
[17] = test system: Klebsiella pneumoniae; assay: Antibacterial activity against Klebsiella pneumoniae ATCC 10031 assessed as inhibition in bacterial growth incubated for 20 to 24 hrs by CLSI based broth microdilution method; assay type: functional; settings: time 20-24 hrs
[18] = test system: Acinetobacter baumannii; assay: Antibacterial activity against Acinetobacter baumannii ATCC 19606 assessed as inhibition in bacterial growth incubated for 20 to 24 hrs by CLSI based broth microdilution method; assay type: functional; settings: time 20-24 hrs
[19] = test system: Escherichia coli; assay: Antibacterial activity against Escherichia coli ATCC 35218 assessed as inhibition in bacterial growth incubated for 20 to 24 hrs by CLSI based broth microdilution method; assay type: functional; settings: Escherichia coli, ATCC 35218, time 20-24 hrs; read-out: MIC
[20] = test system: Escherichia coli; assay: Antibacterial activity against Escherichia coli ATCC 25922 assessed as inhibition in bacterial growth incubated for 20 to 24 hrs by CLSI based broth microdilution method; assay type: functional; settings: time 20-24 hrs
[21] = test system: Klebsiella pneumoniae; assay: Antibacterial activity against Klebsiella pneumoniae ATCC BAA-1705 assessed as inhibition in bacterial growth incubated for 20 to 24 hrs by CLSI based broth microdilution method; assay type: functional; settings: time 20-24 hrs
[22] = test system: Acinetobacter baumannii; assay: Antibacterial activity against Acinetobacter baumannii ATCC 51432 assessed as inhibition in bacterial growth incubated for 20 to 24 hrs by CLSI based broth microdilution method; assay type: functional; settings: Acinetobacter baumannii, ATCC 51432, time 20-24 hrs; read-out: MIC
[23] = molecular target: DNA gyrase (Escherichia coli, UniProt P0AES4+P0AES6); assay: Inhibition of Escherichia coli DNA gyrase incubated for 80 mins by Transcreener ADP2 FI assay; assay type: protein-complex assay
[24] = Stability in mouse plasma assessed as parent compound remaining after 5 hrs relative to control; assay type: ADME, cell-free; settings: read-out: Stability

MIC [1] [µg/mL] | IC50 [2] [nM] | MIC [4] [µg/mL] | MIC [5] [µg/mL] | MIC [6] [µg/mL] | MIC [8] [µg/mL] | MIC [11] [µg/mL] | MIC [12] [µg/mL] | MIC [13] [µg/mL] | MIC [14] [µg/mL] | MIC [15] [µg/mL] | MIC [16] [µg/mL] | MIC [17] [µg/mL] | MIC [18] [µg/mL] | MIC [19] [µg/mL] | MIC [20] [µg/mL] | Structure (SMILES) | inhibition at 1 µM [3] [%] | inhibition at 10 µM [7] [%] | IC20 [9] [µM] | IC50 [10] [µM] | also measured
4 (≈ 7.71 µM) | 19 | 0.5 (≈ 0.964 µM) | ≤ 0.06 | 0.5 (≈ 0.964 µM) | 32 (≈ 61.7 µM) | 1 (≈ 1.93 µM) | 4 (≈ 7.71 µM) | 8 (≈ 15.4 µM) | 1 (≈ 1.93 µM) | 1 (≈ 1.93 µM) | 64 (≈ 123 µM) | 0.125 (≈ 0.241 µM) | 32 (≈ 61.7 µM) | 2 (≈ 3.86 µM) | 2 (≈ 3.86 µM) | N#Cc1cc(OCC2CNC2)cc2c1CC(CNCCC1CN(c3ccc4c(n3)NC(=O)CO4)C(=O)O1)C2 (stereo unspecified) | < 1 | < 1 | > 10 | > 20 | MIC [21]: 16 µg/mL (≈ 30.9 µM); MIC [22]: 16 µg/mL (≈ 30.9 µM); IC50 [23]: 38 nM
1 (≈ 2 µM) | 39 | ≤ 0.06 | ≤ 0.06 | 0.25 (≈ 0.5 µM) | 2 (≈ 4 µM) | ≤ 0.06 | 2 (≈ 4 µM) | 0.125 (≈ 0.25 µM) | 0.25 (≈ 0.5 µM) | 0.125 (≈ 0.25 µM) | 2 (≈ 4 µM) | ≤ 0.06 | 2 (≈ 4 µM) | 0.25 (≈ 0.5 µM) | 0.25 (≈ 0.5 µM) | CC(N)COc1cc(F)c2c(c1)CC(CNCCC1CN(c3ccc4c(n3)NC(=O)CO4)C(=O)O1)C2 (stereo unspecified) | < 1 | 3.9 | > 10 | > 20 | MIC [21]: 1 µg/mL (≈ 2 µM); MIC [22]: 2 µg/mL (≈ 4 µM); IC50 [23]: 47 nM
0.5 (≈ 0.96 µM) | 23 | 0.125 (≈ 0.24 µM) | ≤ 0.06 | ≤ 0.06 | 4 (≈ 7.68 µM) | ≤ 0.06 | 1 (≈ 1.92 µM) | 0.25 (≈ 0.48 µM) | 0.125 (≈ 0.24 µM) | 0.25 (≈ 0.48 µM) | 4 (≈ 7.68 µM) | ≤ 0.06 | 8 (≈ 15.4 µM) | 0.25 (≈ 0.48 µM) | 0.25 (≈ 0.48 µM) | CC(C)(N)COc1cc(C#N)c2c(c1)CC(CNCCC1CN(c3ccc4c(n3)NC(=O)CO4)C(=O)O1)C2 (stereo unspecified) | 3.5 | 11 | > 10 | > 20 | MIC [21]: 2 µg/mL (≈ 3.84 µM); MIC [22]: 8 µg/mL (≈ 15.4 µM); IC50 [23]: 16 nM
4 (≈ 8.31 µM) | 31 | 0.125 (≈ 0.26 µM) | ≤ 0.06 | 4 (≈ 8.31 µM) | 4 (≈ 8.31 µM) | 0.25 (≈ 0.519 µM) | 8 (≈ 16.6 µM) | 0.125 (≈ 0.26 µM) | 1 (≈ 2.08 µM) | 0.25 (≈ 0.519 µM) | 8 (≈ 16.6 µM) | ≤ 0.06 | 0.5 (≈ 1.04 µM) | 0.5 (≈ 1.04 µM) | 0.5 (≈ 1.04 µM) | N#CCOc1cc(F)c2c(c1)CC(CNCCC1CN(c3ccc4c(n3)NC(=O)CO4)C(=O)O1)C2 (stereo unspecified) | 84 | 98 | 0.066 | 0.23 | MIC [21]: 4 µg/mL (≈ 8.31 µM); MIC [22]: 1 µg/mL (≈ 2.08 µM); IC50 [23]: 81 nM
1 (≈ 1.85 µM) | 6 | 1 (≈ 1.85 µM) | ≤ 0.06 | 0.25 (≈ 0.463 µM) | 1 (≈ 1.85 µM) | ≤ 0.06 | 1 (≈ 1.85 µM) | 0.125 (≈ 0.232 µM) | 0.125 (≈ 0.232 µM) | 2 (≈ 3.71 µM) | 4 (≈ 7.41 µM) | ≤ 0.06 | 8 (≈ 14.8 µM) | 0.125 (≈ 0.232 µM) | 0.125 (≈ 0.232 µM) | O=C(CN1CCC1)Nc1cc(F)c2c(c1)CC(CNCCC1CN(c3cnc4c(n3)NC(=O)CO4)C(=O)O1)C2 (stereo unspecified) | < 1 | < 1 | > 10 | > 20 | remaining at 5 h [24]: 10%; MIC [21]: 1 µg/mL (≈ 1.85 µM); MIC [22]: 8 µg/mL (≈ 14.8 µM); IC50 [23]: 14 nM
